Measurements from patent US8404738B2 (Hoffmann-La Roche Inc., priority 2011, dated 2013).
Where two headings read alike, the source gives them in different places.

Tests used:
recombinant human HDAC8 = biological target: T1, recombinant human HDAC8 (Homo sapiens, UniProt Q9BY41); assay: HDAC8 inhibition: recombinant HDAC8 fluorometric assay; type: biochemical
T1 construct: made in house; host or cells: insect cells
T1 sequence (Q9BY41 1-377): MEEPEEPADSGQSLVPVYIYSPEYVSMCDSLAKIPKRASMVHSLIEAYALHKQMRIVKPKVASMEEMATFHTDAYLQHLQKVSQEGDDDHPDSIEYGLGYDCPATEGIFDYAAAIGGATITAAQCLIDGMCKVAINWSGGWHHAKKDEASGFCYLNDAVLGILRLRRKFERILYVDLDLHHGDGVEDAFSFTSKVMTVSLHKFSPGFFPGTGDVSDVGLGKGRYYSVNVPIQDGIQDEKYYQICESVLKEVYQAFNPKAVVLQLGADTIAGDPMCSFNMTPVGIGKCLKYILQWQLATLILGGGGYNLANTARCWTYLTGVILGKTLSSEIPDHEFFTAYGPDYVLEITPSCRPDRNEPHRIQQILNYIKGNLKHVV
Protocol: HDAC8 Inhibition by Novel Compounds: Recombinant HDAC8 Fluorometric Assay.
A competitive inhibitory assay of HDAC8 was carried out by using recombinant HDAC8 and a commercial substrate Ac-Arg-His-Lys-Lys(ε-acetyl)-AMC.
Compounds were tested for their ability to inhibit histone deacetylase 8 using an in vitro deacetylation assay. The enzyme source for this assay was recombinant human HDAC8 protein expressed and purified from insect cells. […] The substrate consisted of a commercial product Ac-Arg-His-Lys-Lys(ε-acetyl)-AMC (substrate is available from Cayman Chemical). […] 1 μl of half-log diluted compounds were added into wells and incubated for 15 min at rt. After that, 8 μl of substrate solution was transferred to the wells and incubated for 30 min at rt. After deacetylation of the substrate by incubation with HDAC8 enzyme, subsequent exposure to a developing reagent produced a fluorophore that was directly proportional to the level of deacetylation. […] The fluorescence signal was measured by a FlexStation3 plate reader (excitation wave length 340-360 nm; emission wave length 440-465 nm). The HDAC8 IC50 was calculated after normalization and curve fitting using XLfit4.0 software. Inhibition %=[Mean(top)−signal(sample)]×100/[Mean(top)−Mean(bottom)].

HDAC6 = biological target: T2, HDAC6 (Homo sapiens, UniProt Q9UBN7); assay: Tubulin acetylation cytoblot assay (A549 cells); type: cell-based; details: 17-18 h incubation, tubulin acetylation as marker of HDAC6 inhibition, read-out: Tub-Ac EC50
T2 construct: endogenous in cells; host or cells: A549 cells
T2 sequence (Q9UBN7 1-1215): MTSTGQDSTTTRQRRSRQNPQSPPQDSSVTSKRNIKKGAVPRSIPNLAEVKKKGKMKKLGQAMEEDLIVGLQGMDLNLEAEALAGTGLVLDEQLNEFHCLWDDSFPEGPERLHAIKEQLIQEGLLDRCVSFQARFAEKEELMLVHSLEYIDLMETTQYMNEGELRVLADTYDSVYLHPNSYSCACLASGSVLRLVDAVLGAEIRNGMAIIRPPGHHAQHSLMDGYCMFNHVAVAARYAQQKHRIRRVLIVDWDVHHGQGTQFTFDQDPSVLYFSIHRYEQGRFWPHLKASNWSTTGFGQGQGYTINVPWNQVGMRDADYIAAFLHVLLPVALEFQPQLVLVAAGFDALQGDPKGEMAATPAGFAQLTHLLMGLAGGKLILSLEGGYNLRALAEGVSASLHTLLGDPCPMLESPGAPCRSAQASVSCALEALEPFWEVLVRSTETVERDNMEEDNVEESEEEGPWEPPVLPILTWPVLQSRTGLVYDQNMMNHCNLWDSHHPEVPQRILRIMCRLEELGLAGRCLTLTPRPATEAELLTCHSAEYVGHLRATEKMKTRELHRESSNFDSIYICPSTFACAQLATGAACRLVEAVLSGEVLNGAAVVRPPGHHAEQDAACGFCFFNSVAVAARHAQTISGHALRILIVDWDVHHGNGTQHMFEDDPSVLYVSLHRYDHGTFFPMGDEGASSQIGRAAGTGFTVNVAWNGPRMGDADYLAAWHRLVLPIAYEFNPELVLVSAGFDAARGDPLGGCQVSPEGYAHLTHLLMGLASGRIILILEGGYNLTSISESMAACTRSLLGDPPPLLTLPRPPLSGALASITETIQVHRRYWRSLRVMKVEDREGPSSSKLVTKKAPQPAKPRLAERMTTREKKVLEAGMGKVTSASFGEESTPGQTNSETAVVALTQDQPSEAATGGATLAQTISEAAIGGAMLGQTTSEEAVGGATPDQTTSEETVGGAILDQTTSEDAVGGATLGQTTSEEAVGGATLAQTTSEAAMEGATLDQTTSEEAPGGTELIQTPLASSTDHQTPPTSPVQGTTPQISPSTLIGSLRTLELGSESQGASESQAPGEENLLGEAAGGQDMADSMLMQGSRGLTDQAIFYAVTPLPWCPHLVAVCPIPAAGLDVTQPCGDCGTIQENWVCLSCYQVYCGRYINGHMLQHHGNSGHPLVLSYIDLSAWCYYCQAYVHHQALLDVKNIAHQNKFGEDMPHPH
Protocol: Tubulin Acetylation Induction by Novel Compounds: Tubulin Acetylation Cytoblot Assay.
Tubulin acetylation is a PD marker for HDAC6 inhibition. The extent of tubulin acetylation represents the inhibitory effect on HDAC6.
Novel compounds were tested for their ability to inhibit HDAC6 using a cell-based deacetylation assay. Tubulin acetylation was detected by the anti-acetylated tubulin antibody (Sigma) and horse radish peroxidase (HRP) conjugated secondary antibody (KangChen Bio. Tech.). […] 20 μl of diluted compound solution was transferred to the cell culture plate and incubated for 17-18 h. After medium removal and fixation by formaldehyde (3.7% paraformaldehyde in TBS), the cells in the plates were treated with 180 μl of −20° C. MeOH and incubated for 5 min at rt. The cell lysis was incubated with 75 μl of primary anti-acetylated tubulin antibody and secondary HRP conjugated antibody solution (1:750 anti-acetylated tubulin, 1:750 HRP conjugated anti-mouse IgG in antibody dilution buffer not containing sodium azide) for 4 h at 4° C. By adding the HRP substrate, enhanced chemiluminescence (ECL) reagent (GE Healthcare) generated luminescence corresponding to the level of tubulin acetylation. So that 75 μl of ECL was added into the wells and the luminescence from each well was immediately quantified by the plate reader. Based on the luminescence reading, the Tub-Ac EC50s against HDAC6 of the tested compounds were calculated by plotting the curve with XLfit4.0 software. Inhibition %=[signal(sample)−Mean(bottom)]×100/[Mean(top)−Mean(bottom)]

[1] = test system: p21 promoter-luciferase construct; assay: p21 reporter gene induction (HeLa cells, p21 promoter-luciferase construct); details: for p21 RP3: relative gene level of p21 compared to MS275 at 3 μM; for p21 RP10: relative level of p21 compared to MS275 at 10 μM; for p21 RP30: relative level of p21 compared to MS275 at 30 μM;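 as to all read-outs here: transfected HeLa cells exposed to compound for 15 h, luciferase luminescence read from lysates, p21 promoter lacks p53 site, proxy for cellular HDAC1/2/3 inhibition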
[2] = recombinant human HDAC8, substrate Ac-Arg-His-Lys-Lys(ε-acetyl)-AMC, read-out: HDAC8 IC50

IC50 (recombinant human HDAC8; [2])	EC50 (HDAC6)	Compound	p21 RP3 [1]	p21 RP10 [1]	p21 RP30 [1]	IC50 (recombinant human HDAC8; HDAC8 IC50, recombinant human HDAC8, substrate Ac-Arg-His-Lys-Lys(ε-acetyl)-AMC)
850 nM	1250 nM	C[C@H]1[C@H](Nc2ccc(C(=O)NO)cc2)CC(=O)N1c1ccc(Cl)cc1 (racemic) [Example 77, Trans-4-[1-(4-Chloro-phenyl)-2-methyl-5-oxo-pyrrolidin-3-ylamino]-N-hydroxy-benzamide]	0.00	0.07	0.07	–
–	4900 nM	CCCCc1ccc(N2CCC(Nc3ccc(C(=O)NO)cc3)C2=O)cc1 (stereo not shown) [Example 15, 4-[1-(4-Butyl-phenyl)-2-oxo-pyrrolidin-3-ylamino]-N-hydroxy-benzamide]	0.09	0.06	0.04	–
1410 nM	–	O=C(NO)c1ccc(NC2CCN(c3ccc(Cl)cc3Cl)C2=O)cc1 (stereo not shown) [Example 23, 4-[1-(2,4-Dichloro-phenyl)-2-oxo-pyrrolidin-3-ylamino]-N-hydroxy-benzamide]	0.10	0.04	0.03	–
390 nM	–	COc1ccc(CN2CCC(Nc3ccc(C(=O)NO)cc3)C2=O)cc1 (stereo not shown) [Example 46, N-Hydroxy-4-[1-(4-methoxy-benzyl)-2-oxo-pyrrolidin-3-ylamino]-benzamide]	0.07	0.26	0.70	–
310 nM	–	O=C(NO)c1ccc(NC2CCN(C3(c4ccccc4)CCC3)C2=O)cc1 (stereo not shown) [Example 54, N-Hydroxy-4-[2-oxo-1-(1-phenyl-cyclobutyl)-pyrrolidin-3-ylamino]-benzamide]	0.28	0.46	0.79	–
560 nM	–	CCC1(Nc2ccc(C(=O)NO)cc2)CCN(C(C)(C)c2ccccc2)C1=O (stereo not shown) [Example 65, 4-[3-Ethyl-1-(1-methyl-1-phenyl-ethyl)-2-oxo-pyrrolidin-3-ylamino]-N-hydroxy-benzamide]	0.00	0.00	0.00	–
–	6670 nM	O=C(NO)c1ccc(NC2CCN(c3ccc(Cl)c(Cl)c3)C2=O)cc1F (stereo not shown) [Example 68, 4-[1-(3,4-Dichloro-phenyl)-2-oxo-pyrrolidin-3-ylamino]-2-fluoro-N-hydroxy-benzamide]	−0.05	0.02	0.01	–
1880 nM	3020 nM	CC(C)(c1ccccc1)N1CC(Nc2ccc(C(=O)NO)cc2)CC1=O (stereo not shown) [Example 76, N-Hydroxy-4-[1-(1-methyl-1-phenyl-ethyl)-5-oxo-pyrrolidin-3-ylamino]-benzamide]	–	–	–	–
2770 nM	–	O=C(NO)c1ccc(NC2CCN(S(=O)(=O)c3ccccc3)C2)cc1 (stereo not shown) [Example 84, 4-(1-Benzenesulfonyl-pyrrolidin-3-ylamino)-N-hydroxy-benzamide]	0.13	0.02	0.01	–
1540 nM	–	O=C(NO)c1ccc(NC2CCN(S(=O)(=O)c3ccc(Cl)cc3)C2)cc1 (stereo not shown) [Example 86, 4-[1-(4-Chloro-benzenesulfonyl)-pyrrolidin-3-ylamino]-N-hydroxy-benzamide]	0.04	0.01	0.01	–
2010 nM	–	O=C(NO)c1ccc(NC2CCN(S(=O)(=O)c3ccc(-c4ccccc4)cc3)C2)cc1 (stereo not shown) [Example 87, 4-[1-(Biphenyl-4-sulfonyl)-pyrrolidin-3-ylamino]-N-hydroxy-benzamide]	0.20	0.00	−0.03	–
1350 nM	–	O=C(NO)c1ccc(NC2CCN(C(=O)c3ccccc3)C2)cc1 (stereo not shown) [Example 88, 4-(1-Benzoyl-pyrrolidin-3-ylamino)-N-hydroxy-benzamide]	0.35	0.06	0.03	–
900 nM	–	O=C(NO)c1ccc(NC2CCN(C(=O)c3ccc(F)cc3)C2)cc1 (stereo not shown) [Example 89, 4-[1-(4-Fluoro-benzoyl)-pyrrolidin-3-ylamino]-N-hydroxy-benzamide]	0.38	0.10	0.06	–
920 nM	–	COc1ccc(C(=O)N2CCC(Nc3ccc(C(=O)NO)cc3)C2)cc1 (stereo not shown) [Example 90, N-Hydroxy-4-[1-(4-methoxy-benzoyl)-pyrrolidin-3-ylamino]-benzamide]	0.38	0.09	0.05	–
980 nM	150 nM	CC1(Nc2ccc(C(=O)NO)cc2)C(=O)N(CCc2ccccc2)c2ccccc21 (stereo not shown) [Example 94, N-hydroxy-4-(3-methyl-2-oxo-1-phenethyl-2,3-dihydro-1H-indol-3-ylamino)-benzamide]	–	–	–	–

Compound	IC50 (recombinant human HDAC8; [2])	EC50 (HDAC6)	p21 RP3 [1]	p21 RP10 [1]	p21 RP30 [1]	IC50 (recombinant human HDAC8; HDAC8 IC50, recombinant human HDAC8, substrate Ac-Arg-His-Lys-Lys(ε-acetyl)-AMC)
O=C(NO)c1ccc(NC2CCN(c3ccccc3)C2=O)cc1 (stereo not shown) [Example 1]	–	5860 nM	0.08	0.08	0.15	810 nM
O=C(NO)c1ccc(NC2CCN(c3ccc(C(F)(F)F)cc3)C2=O)cc1 (stereo not shown) [Example 12, N-Hydroxy-4-[2-oxo-1-(4-trifluoromethyl-phenyl)-pyrrolidin-3-ylamino]-benzamide]	990 nM	–	0.01	0.10	0.14	–
O=C(NO)c1ccc(NC2CCN(CCc3ccccc3)C2=O)cc1 (stereo not shown) [Example 43, N-Hydroxy-4-(2-oxo-1-phenethyl-pyrrolidin-3-ylamino)-benzamide]	390 nM	–	−0.02	0.22	0.62	–
